We go through four compounds from PMC7774954, “Interactomic affinity profiling by holdup assay: Acetylation and distal residues impact the PDZome-binding specificity of PTEN phosphatase” (PLoS ONE, 2020).

Assay [1] concerns the target T1, SNTB2 PDZ 1 (Homo sapiens, UniProt Q13425).
T1 construct: made in house; host or cells: E. coli
T1 sequence (Q13425 115-198 limits assumed): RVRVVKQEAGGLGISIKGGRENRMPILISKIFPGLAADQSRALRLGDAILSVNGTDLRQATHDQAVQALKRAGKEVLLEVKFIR
As to the kind of experiment: Holdup assay, SNTB2-1. The class given is binding. The settings on record: for BI: PDZ domain SNTB2-1. The procedure: (§1) The holdup assay was performed on a Tecan freedom Evo200 robot with 384-well plates in singlicate for the three 11-mer PTEN variants and the 13-mer PTEN peptide as described in [31, 32]. Briefly, prior to interaction assay, 2.5 μL of streptavidin resin was saturated in each well with 20 μL of biotinylated PBM peptides (42 μM) and then washed twice with an excess of free biotin, while the reference resin was incubated only with biotin. Right before the holdup experiment, the PDZ library was spiked with an internal standard of lysozyme. Then, the biotin- or PBM-saturated resin was incubated, each in a distinct well of a 384-well plate, with complete cell lysates diluted so that the concentration of the tag-PDZ present in the crude extract is adjusted at 4 μM. After a sufficient time to reach complex equilibrium (15 min.), a fast and mild filtration step is performed and the tag-PDZ concentrations were measured by capillary electrophoresis instrument (LabChip GXII, PerkinElmer, Massachusets, USA). Standard markers were used to convert migration time into molecular weight on the LabChip software and inappropriate molecular weight markers were corrected or excluded.
(§2) For filtered data, the BI was extracted with the following equation (Eq 1) that estimates the depleted fraction after superimposition of the sample and reference electropherograms: BI=Iref−Ilig/Iref (1) where Iref and Ilig are the intensities of the tag-PDZ peaks measured, for each PDZ domain/PBM peptide interaction pair, in the biotin reference and the PBM electropherograms, respectively.
BIs were transformed into dissociation constants (KD) using the following formula: KD=([PDZtot]−BI·[PDZtot])·([PBMtot]−BI·[PDZtot])/BI·[PDZtot] (2) where [PDZtot] and [PBMtot] correspond to the total concentrations of the PDZ domain (usually around 4 μM) and the PBM peptide used during the assay. Since the PBMtot concentration in the resin during the holdup assay parameter may differ from one peptide to another and remains unknown, it is impossible to directly convert BI values into KD constants. We systematically determined the KD constants for a subset of PDZ/PBM pairs by competitive FP. […] For each PBM, the average peptide concentration was calculated after outlier rejection based on the absolute distances from the median as compared to three times the standard deviation (3σ rule), with never more than 2 values rejected.

Assay [2] has as its target T2, SCRIB-3 (Homo sapiens, UniProt Q14160).
T2 construct: Representative holdup data recorded for three PDZ domains (MAST2-1, HTRA1-1, SCRIB-3); made in house; host or cells: E. coli
T2 sequence (Q14160 1004-1093 limits assumed): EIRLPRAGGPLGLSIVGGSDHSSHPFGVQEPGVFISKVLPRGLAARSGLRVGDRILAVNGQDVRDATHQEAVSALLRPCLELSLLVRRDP
As to the kind of experiment: Holdup assay, SCRIB-3. The settings on record: for BI: PDZ domain SCRIB-3. The class given is binding. The procedure:
as §1, §2

Assay [3] deals with AHNAK2-1. As to the kind of experiment: Holdup assay, AHNAK2-1. The class given is binding, human.
Assay [4] deals with APBA3-2. Put plainly: Holdup assay, APBA3-2. The class given is binding, human.
Assay [5] concerns ARHGAP23-1. As to the kind of experiment: Holdup assay, ARHGAP23-1. The class given is binding, human.
In assay [6] the test system is CNKSR3-1. Put plainly: Holdup assay, CNKSR3-1. The class given is binding, human.
For assay [7], the target named is T3, DLG3-2 (Homo sapiens, UniProt Q92796).
T3 sequence (Q92796 244-330): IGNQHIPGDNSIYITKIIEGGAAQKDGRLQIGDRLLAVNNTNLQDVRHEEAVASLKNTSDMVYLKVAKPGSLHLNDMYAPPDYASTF
As to the kind of experiment: Holdup assay, DLG3-2. The class given is binding.

Assay [8] has as its system DLG5-2. Put plainly: Holdup assay, DLG5-2. The class given is binding, human.
Assay [9] has as its system INADL-10. As to the kind of experiment: Holdup assay, INADL-10. The class given is binding, human.
The subject of assay [10] is LDB3-1. Put plainly: Holdup assay, LDB3-1. The class given is binding, human.
Assay [11] has as its system MAGI3-1. Put plainly: Holdup assay, MAGI3-1. The class given is binding, human.
For assay [12], the system named is MAGI3-4. Put plainly: Holdup assay, MAGI3-4. The class given is binding, human.
The test system of assay [13] is MAST4-1. Put plainly: Holdup assay, MAST4-1. The class given is binding, human.
In assay [14] the target is T4, GIPC2-1 (Homo sapiens, UniProt Q8TF65).
T4 sequence (Q8TF65 1-315): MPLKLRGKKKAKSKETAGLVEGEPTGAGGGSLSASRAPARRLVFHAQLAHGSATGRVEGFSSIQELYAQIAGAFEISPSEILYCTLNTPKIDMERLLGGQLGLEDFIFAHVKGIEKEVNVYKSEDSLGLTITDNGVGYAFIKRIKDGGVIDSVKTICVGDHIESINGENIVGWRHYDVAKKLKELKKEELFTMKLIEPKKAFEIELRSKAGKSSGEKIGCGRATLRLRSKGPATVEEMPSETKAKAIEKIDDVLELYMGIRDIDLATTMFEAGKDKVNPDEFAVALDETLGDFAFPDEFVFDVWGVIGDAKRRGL
As to the kind of experiment: Holdup assay, GIPC2-1. The class given is binding.

Each structure is given as a SMILES string. *1 amine or outer side, *2 acyl side, *3 side chain or, on linkers, in order; H or OH if unused. Where a SMILES comes first, the peptide text is derived from it. The star is where a group is joined. X1 = O=C(CCCC[C@@H]1SC[C@@H]2NC(=O)N[C@@H]21)NCCCOCCOCCOCCCN*; Suc = O=C(CCC(=O)[*:2])[*:1]

Regarding `CC[C@H](C)[C@H](NC(=O)[C@H](CCC(N)=O)NC(=O)[C@@H](NC(=O)[C@H](Cc1c[nH]cn1)NC(=O)[C@H](CCC(N)=O)NC(=O)[C@H](CC(=O)O)NC(=O)[C@H](CCC(=O)O)NC(=O)[C@H](CC(=O)O)NC(=O)CCC(=O)NCCCOCCOCCOCCCNC(=O)CCCC[C@@H]1SC[C@@H]2NC(=O)N[C@@H]21)[C@@H](C)O)C(=O)N[C@H](C(=O)N[C@@H](CCCCN)C(=O)N[C@H](C(=O)O)C(C)C)[C@@H](C)O` [PTEN_11], the BI is given as 0.023 in assay [1]; 0.058 in [2]; -0.026 in assay [3]; 0.086 in assay [4]; -0.109 in assay [5]; 0.028 in assay [6]. For the same compound, the BI in assay [7] is given as 0.13; in assay [8] it was 0.001; in [9], 0.022; in assay [10], -0.027; in [11], -0.011; in assay [12], -0.092. The BI in assay [13] was -0.08. Also, the “BI (binding intensity)” value in assay [2] (SCRIB-3, holdup, singlicate) turned out to be 0.02. Further, the LogKD in assay [3], in [4], in [5], in assay [6], in [8] and in [9] was 3.519 each time. In addition, the LogKD in assay [10], in [11], in assay [12] and in assay [13] was 3.519 each time.
Consider `CC[C@H](C)[C@H](NC(=O)[C@H](CCC(N)=O)NC(=O)[C@@H](NC(=O)[C@H](Cc1c[nH]cn1)NC(=O)[C@H](CCC(N)=O)NC(=O)[C@H](CC(=O)O)NC(=O)[C@H](CCC(=O)O)NC(=O)[C@H](CC(=O)O)NC(=O)[C@H](Cc1ccccc1)NC(=O)[C@@H]1CCCN1C(=O)CCC(=O)NCCCOCCOCCOCCCNC(=O)CCCC[C@@H]1SC[C@@H]2NC(=O)N[C@@H]21)[C@@H](C)O)C(=O)N[C@H](C(=O)N[C@@H](CCCCN)C(=O)N[C@H](C(=O)O)C(C)C)[C@@H](C)O` [PTEN_13] ({X1-Suc}-PFDEDQHTQITKV-OH), for which, in [1], binding was put at a Kd of 64 µM. The BI in assay [1] is 0.202; in assay [2], -0.068; in assay [4], 0.046; in [5] it was -0.062; in assay [6], 0.002; in assay [7], 0.089. Further, the BI in assay [8] was -0.092; in assay [14], -0.087; in [9], -0.05; in assay [10], -0.021; in assay [11], -0.006; in assay [12], -0.112. The same compound registered a BI in assay [13] of 0.058. The compound further displayed a LogKD in assay [7] of 3.826.
For `CC[C@H](C)[C@H](NC(=O)[C@H](CCC(N)=O)NC(=O)[C@@H](NC(=O)[C@H](Cc1c[nH]cn1)NC(=O)[C@H](CCC(N)=O)NC(=O)[C@H](CC(=O)O)NC(=O)[C@H](CCC(=O)O)NC(=O)[C@H](CC(=O)O)NC(=O)CCC(=O)NCCCOCCOCCOCCCNC(=O)CCCC[C@@H]1SC[C@@H]2NC(=O)N[C@@H]21)[C@@H](C)O)C(=O)N[C@H](C(=O)N[C@@H](CCCCNC(C)=O)C(=O)N[C@H](C(=O)O)C(C)C)[C@@H](C)O` [PTEN_Ac], the BI in assay [2] is recorded as -0.053; in assay [3], 0.034; in assay [4] it was 0.024; in [5] it was -0.108; in [7], 0.445; in assay [8], 0.018. The results for the BI in assay [10], in assay [12] and in assay [13] were -0.04, -0.101 and -0.003, respectively. The LogKD in assay [3], in assay [4], in assay [5], in assay [8], in [14] and in assay [10] was 3.605 in each case. For the same compound, the LogKD in [12] and in assay [13] was 3.605 in each case. Moreover, binding in [7] was put at a Kd of 32.7 µM.
`CC[C@H](C)[C@H](NC(=O)[C@H](CCC(N)=O)NC(=O)[C@@H](NC(=O)[C@H](Cc1c[nH]cn1)NC(=O)[C@H](CCC(N)=O)NC(=O)[C@H](CC(=O)O)NC(=O)[C@H](CCC(=O)O)NC(=O)[C@H](CC(=O)O)NC(=O)CCC(=O)NCCCOCCOCCOCCCNC(=O)CCCC[C@@H]1SC[C@@H]2NC(=O)N[C@@H]21)[C@@H](C)O)C(=O)N[C@H](C(=O)N[C@@H](CCCNC(=N)N)C(=O)N[C@H](C(=O)O)C(C)C)[C@@H](C)O` [PTEN_KR] ({X1-Suc}-DEDQHTQITRV-OH): the BI in assay [1] was 0.009; in [2], 0.022; in [3] it was -0.009; in [4], 0.086; in assay [5] it was -0.018; in assay [6] it was -0.031. In addition, the BI is reported as 0.277 in [7]; -0.028 in [8]; 0.019 in [9]; -0.05 in assay [10]; -0.004 in assay [11]; -0.011 in assay [12]. In assay [13], this compound registered a BI of -0.027. The LogKD in [3], in assay [4], in assay [5], in [6], in [8] and in assay [14] was 3.655 in each case. Also, the LogKD in assay [9], in assay [10], in [11], in assay [12] and in [13] was 3.655 throughout. The Kd (in general, a measure of binding affinity in units of concentration) in assay [7] is 62.4 µM.
